Assay results reported in US10815235B2, “Polycyclic compounds and uses thereof” (priority 2017, dated 2020).
pEC50, pIC50: −log10 of the molar value. Like-named read-outs stand apart in the source and are kept apart here.

Key:
[1] = biological target: Serotonin 5-HT1D receptor (Homo sapiens, UniProt P28221); assay: GTPγS Scintillation Proximity Assay, agonist and antagonist mode; type: biochemical
Description: Antagonist and agonist activities were determined using a GTPγS Scintillation Proximity Assay. The assay was prepared as follows: Membrane extracts were prepared from recombinant human Dopamine D2L, D3; Serotonin 5-HT1A, 5-HT1B, 5-HT1D and 5-HT1F receptors.
Samples were tested by proprietary biological assays by Ogeda S. A., Euroscreen FAST Business Unit, Rue Adrienne Bolland, 47 B-6041 Gosselies, Belgium. Each protein assay was prepared using the following conditions.
5-HT1D • Assay buffer: 20 mM HEPES pH 7.4; 200 mM NaCl, 10 μg/ml saponin, 3 mM MgCl2; • Membranes: recombinant 5-HT1D membrane extracts thawed on ice and diluted in assay buffer to give […] and kept on ice; • GDP: diluted in assay buffer to give a 30 μM working solution (3 μM final concentration); • Beads: PVT-WGA (Perkin Elmer, RPNQ001), diluted in assay buffer at 50 mg/ml (0.5 mg/10 μl); and • GTPγ^35S: (PerkinElmer NEG030X), diluted in assay buffer to give 0.1 nM.
Membranes were mixed with GDP (volume:volume 1:1) and incubated for at least 15 min on ice. In parallel, GTPγ[^35S] is mixed with the beads (volume:volume 1:1) just before starting the reaction.
To determine agonist activity, the following reagents were added in the wells of an Optiplate (Perkin Elmer): 50 μL of test or reference ligand, 10 μL of assay buffer, 20 μl of the membranes:GDP mix, and 20 μL of the GTPγ[^35S]:beads mix. EC50 values were used to determine whether a compound acted as an agonist.
To determine antagonist activity, the following reagents were added in the wells of an Optiplate (Perkin Elmer): 50 μL of test or reference ligand, 20 μL of the membranes:GDP mix, then the plate is incubated 15 minutes at room temperature. After incubation, 10 μL of reference agonist at historical EC80 (final concentration) was added, followed by 20 μL of the GTPγ[^35S]:beads mix.
The plates were covered with a top seal, mixed on an orbital shaker for 2 min, and then incubated for 1 hour at room temperature. Then the plates were centrifuged for 10 min at 2000 rpm, incubated at room temperature 1 hour and counted for 1 min/well with a PerkinElmer TopCount reader. IC50 values were used to determine whether a compound acted as an antagonist.

[2] = biological target: T1, Serotonin 5-HT2B receptor (Homo sapiens, UniProt P41595); assay: IPOne HTRF assay, agonist and antagonist mode; type: cell-based
T1 construct: expressed in transfected cells; host or cells: CHO-K1
T1 sequence (P41595 whole entry): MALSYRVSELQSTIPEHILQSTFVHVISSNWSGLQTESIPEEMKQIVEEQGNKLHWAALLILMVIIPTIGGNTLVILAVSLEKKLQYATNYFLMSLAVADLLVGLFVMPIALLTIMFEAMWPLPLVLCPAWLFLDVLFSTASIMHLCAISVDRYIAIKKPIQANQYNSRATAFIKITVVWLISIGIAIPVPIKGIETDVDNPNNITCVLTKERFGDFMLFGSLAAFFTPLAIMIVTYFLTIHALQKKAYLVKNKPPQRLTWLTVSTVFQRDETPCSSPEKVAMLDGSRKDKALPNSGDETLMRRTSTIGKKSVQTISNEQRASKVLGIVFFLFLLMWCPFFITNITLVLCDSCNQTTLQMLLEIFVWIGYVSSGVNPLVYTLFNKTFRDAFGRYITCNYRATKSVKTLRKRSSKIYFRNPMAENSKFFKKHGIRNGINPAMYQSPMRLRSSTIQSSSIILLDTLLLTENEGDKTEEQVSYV
Description: Antagonist and agonist activities were determined using an IPOne […] HTRF assay. The assay was prepared as follows: CHO-K1 cells expressing human recombinant Adrenergic α1A, Serotonin 5-HT2A, and 5-HT2B receptors grown to mid-log phase in culture media without antibiotics were detached with PBS-EDTA, centrifuged and resuspended in medium without antibiotics buffer. 20,000 cells were distributed in a 96 well plate and incubated overnight at 37° C. with 5% CO2.
To analyze agonist activity, the medium was removed and 20 μl of assay buffer plus 20 μl of test compound or reference agonist were added in each well. The plate was incubated for 60 min. at 37° C. with 5% CO2. EC50 values were used to determine whether a compound acted as an agonist.
To analyze antagonist activity, 20 μl of test compound or reference antagonist was added and the plate is incubated for 15 min. at 37° C. in a humidified atmosphere of 95% air with 5% CO2, then 20 μl of reference agonist at a final concentration corresponding to the historical EC80 is added. The plate is incubated for 60 min. at 37° C. with 5% CO2. IP1-D2 reagent and anti-IP1 cryptate reagents are then dispensed in the wells and IP1 concentrations are then measured following the manufacturer recommendations. IC50 values were used to determine whether a compound acted as an antagonist.

Chain of Serotonin 5-HT1D receptor (P28221 whole entry): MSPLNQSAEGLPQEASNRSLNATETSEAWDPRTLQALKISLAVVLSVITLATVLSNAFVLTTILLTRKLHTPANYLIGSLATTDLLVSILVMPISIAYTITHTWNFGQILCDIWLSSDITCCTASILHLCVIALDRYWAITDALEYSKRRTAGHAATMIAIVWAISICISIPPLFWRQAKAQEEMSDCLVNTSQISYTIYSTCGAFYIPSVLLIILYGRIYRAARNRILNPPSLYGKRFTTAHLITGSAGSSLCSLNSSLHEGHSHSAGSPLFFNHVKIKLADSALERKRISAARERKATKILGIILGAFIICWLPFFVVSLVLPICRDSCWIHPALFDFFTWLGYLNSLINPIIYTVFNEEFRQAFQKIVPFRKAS

CC[C@@H](CO)NC(=O)[C@@H]1C=C2c3cccc4c3c(c(C3CC3)n4C)C[C@H]2N(C)C1 [Compound D13, (6aR,9R)-5-cyclopropyl-N—((S)-1-hydroxybutan-2-yl)-4,7-dimethyl-4,6,6a,7,8,9-hexahydroindolo[4,3-fg]quinoline-9-carboxamide]
pEC50 ([1]; Agonist Activity (EC50), 5-HT1D, membrane extracts): 6.14 | pEC50 ([1]; EC50 value for the Serotonin 5-HT1D receptor, agonist mode, bound stated): > 6.00 | pIC50 ([2]; CHO-K1 cells, vs reference agonist at EC80, read-out: Antagonist Activity (IC50), 5-HT2B): 6.85 | pIC50 ([2]; antagonist mode, bound stated, read-out: IC50 value for the Serotonin 5-HT2B receptor): > 6.00
